The record followed here is patent publication US20010006961A1, “METHOD FOR IMPROVING FRUIT YIELDS FROM BANANA PLANTS” (priority 1995, published 2001).

The subject of test [1] is banana plants. Put plainly: In vivo test on a banana plantation, fosetyl-Al wettable powder applied with a knapsack sprayer (Example 1). Here is the method:
Example 1: In viva test of a composition comprising fosetyl-Al on a banana plantation:
The test is carried out on a plantation of banana plants which have reached a stage of regular fruit production. This plantation is furthermore treated periodically throughout the duration of the test by means of a conventional protective treatment against various fungal diseases, as well as against harmful insects and nematodes, which treatment is known to have no effect of the type of those observed below with fosetyl-Al.
The duration of the test is 2 years.
At the beginning of the first year, treatment with fosetyl-Al is carried out. For this, use is made of a wettable powder formulation of fosetyl-Al diluted in water before use, which is applied by means of a knapsack sprayer. The application dose is 6.4 kg of fosetyl-Al per hectare. This application of fosetyl-Al is repeated every 3 months throughout the duration of the test.
The average weight of a bunch of bananas harvested per plant is measured. The mean value of this weight, during the 2nd year of the test, is equal to 39.8 kg.
In comparison, a control test was carried out, in which there was no application of fosetyl-Al, the protocol otherwise being identical. This test gave 38.4 kg as the average value of the weight of a bunch of bananas harvested per plant, measured under the same conditions as above.

Test [2] has as its system banana plants. Put plainly: In vivo test on a banana plantation on a soil of different nature, treatment carried out with an aeroplane (Example 2). Conditions: applied by aeroplane, control 37.4 kg. An excerpt: Example 2: In vivo test of a composition comprising fosetyl-Al on a banana plantation:
Example 1 is repeated, a plantation situated on a soil of different nature being treated and the treatment being carried out with an aeroplane. The fosetyl-Al doses applied are shown in the table below, along with the average banana bunch weights obtained.

For test [3], the system named is banana plants. The test is described as follows: In vivo test of application by injection into the growing pseudostem (Example 3). Conditions: 6 kg/ha (3 g per plant) injected into pseudostem 1 month before flowering; harvest 4 months later; control 28.3 kg. How it is done: Example 3: In vivo test of the application of a composition comprising fosetyl-Al by injection into the growing pseudostem:
The test is carried out on a plantation of banana plants which have reached a stage of regular fruit production. This plantation is furthermore treated periodically throughout the duration of the test by means of a conventional preventive treatment against various fungal diseases, as well as against harmful insects and nematodes, which treatment is known to have no effect of the type of those observed below with fosetyl-Al.
Fosetyl-Al is injected into the pseudostem of the growing banana plants, in the proportion of 6 kg/ha (i.e. 3 g of fosetyl-Al per plant), 1 month before flowering.
The fruits are harvested 4 months later. The average weight of the bunch of bananas is 31.4 kg. The average weight of a bunch of bananas corresponding to the control test (untreated banana plants) is 28.3 kg.

For `CCO[PH](=O)[O-].CCO[PH](=O)[O-].CCO[PH](=O)[O-].[Al+3]` [fosetyl-Al, aluminium tris(O-ethyl phosphonate)], the “average weight of a bunch of bananas harvested per plant” value with banana plants [1] (6.4 kg fosetyl-Al per hectare, sprayed every 3 months, mean value during 2nd year of the test, control 38.4 kg) is reported as 39.8 kg. For the same molecule, in the test with banana plants [1] (6.4 kg/ha every 3 months, 39.8 kg vs control 38.4 kg), the “difference in average bunch weight versus control, relative value” is 5%. Also, the “additional amount of fruit” value with banana plants [1] (in the case where the yield of the banana plantation is 40 tonnes/hectare of bananas) is recorded as approximately 2 tonnes. In addition, the “Average weight of a bunch” value is recorded as 38.9 kg in the test on banana plants [2] (fosetyl-Al dose 3.2 kg/ha) and 39.7 kg in the test on banana plants [2] (fosetyl-Al dose 6.4 kg/ha). Further, the “average weight of the bunch of bananas” value in the test with banana plants [3] is 31.4 kg.
